Measurements as given in ChEMBL document CHEMBL2150936, “Anticancer activity of small amphipathic β²,²-amino acid derivatives” (Eur J Med Chem, 2012).

Experiments:
NCI/ADR-RES = assay: Cytotoxicity against human NCI/ADR-RES cells after 4 hrs by MTT assay; type: functional, cell-based
HCC 2998 = assay: Cytotoxicity against human HCC2998 cells after 4 hrs by MTT assay; type: functional, cell-based; settings: HCC 2998, 4 h
[1] = read-out: LC50 (the source's name)

NCCNC(=O)C(CN)(Cc1ccc2ccccc2c1)Cc1ccc2ccccc2c1
IC50 (NCI/ADR-RES): 3.16 µM
TGI (NCI/ADR-RES): 3.31 µM
CC50 (NCI/ADR-RES; [1]): 6.46 µM
IC50 (HCC 2998): 0.59 µM
TGI (HCC 2998): 1.26 µM
CC50 (HCC 2998; [1]): 3.98 µM
